Experimental data published in article PMC11062922 (Nature Chemical Biology, 2023).
Like-named read-outs stand apart in the source and are kept apart here.

Legend:
ACAD11 = molecular target: T1, ACAD11 (Homo sapiens, UniProt Q709F0); test: Kinobeads two-dose competition binding: ACAD11; conditions: read-out: Lestaurtinib Drugmatrix value, Gene Name ACAD11
T1 construct: endogenous in cells
T1 sequence (Q709F0 1-780): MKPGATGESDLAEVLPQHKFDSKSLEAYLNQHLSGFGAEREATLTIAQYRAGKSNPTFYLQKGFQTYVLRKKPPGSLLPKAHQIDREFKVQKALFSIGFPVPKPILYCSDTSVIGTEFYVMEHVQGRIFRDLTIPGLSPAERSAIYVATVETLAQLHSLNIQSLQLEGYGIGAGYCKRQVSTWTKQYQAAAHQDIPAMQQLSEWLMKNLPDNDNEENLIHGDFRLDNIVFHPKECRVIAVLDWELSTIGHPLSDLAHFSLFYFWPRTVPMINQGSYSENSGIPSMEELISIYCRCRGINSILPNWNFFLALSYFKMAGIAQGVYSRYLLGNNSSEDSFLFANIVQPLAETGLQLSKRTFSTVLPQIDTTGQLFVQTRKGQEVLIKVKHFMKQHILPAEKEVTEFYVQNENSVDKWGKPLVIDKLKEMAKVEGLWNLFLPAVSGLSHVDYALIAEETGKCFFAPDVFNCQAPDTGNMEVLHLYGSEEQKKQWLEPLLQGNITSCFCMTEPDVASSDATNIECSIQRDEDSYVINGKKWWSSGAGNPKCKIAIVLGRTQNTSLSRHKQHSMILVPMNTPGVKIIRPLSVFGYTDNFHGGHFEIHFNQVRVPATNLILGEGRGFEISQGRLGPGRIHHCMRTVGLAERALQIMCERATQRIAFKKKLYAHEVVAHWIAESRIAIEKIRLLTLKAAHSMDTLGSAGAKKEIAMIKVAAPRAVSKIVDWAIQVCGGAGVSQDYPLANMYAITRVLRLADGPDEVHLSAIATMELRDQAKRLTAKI

EPHA1 = molecular target: T2, EPHA1 (Homo sapiens, UniProt P21709); test: Kinobeads two-dose competition binding: EPHA1; conditions: read-out: Lestaurtinib Drugmatrix value, Gene Name EPHA1
T2 construct: endogenous in cells
T2 sequence (P21709 26-976): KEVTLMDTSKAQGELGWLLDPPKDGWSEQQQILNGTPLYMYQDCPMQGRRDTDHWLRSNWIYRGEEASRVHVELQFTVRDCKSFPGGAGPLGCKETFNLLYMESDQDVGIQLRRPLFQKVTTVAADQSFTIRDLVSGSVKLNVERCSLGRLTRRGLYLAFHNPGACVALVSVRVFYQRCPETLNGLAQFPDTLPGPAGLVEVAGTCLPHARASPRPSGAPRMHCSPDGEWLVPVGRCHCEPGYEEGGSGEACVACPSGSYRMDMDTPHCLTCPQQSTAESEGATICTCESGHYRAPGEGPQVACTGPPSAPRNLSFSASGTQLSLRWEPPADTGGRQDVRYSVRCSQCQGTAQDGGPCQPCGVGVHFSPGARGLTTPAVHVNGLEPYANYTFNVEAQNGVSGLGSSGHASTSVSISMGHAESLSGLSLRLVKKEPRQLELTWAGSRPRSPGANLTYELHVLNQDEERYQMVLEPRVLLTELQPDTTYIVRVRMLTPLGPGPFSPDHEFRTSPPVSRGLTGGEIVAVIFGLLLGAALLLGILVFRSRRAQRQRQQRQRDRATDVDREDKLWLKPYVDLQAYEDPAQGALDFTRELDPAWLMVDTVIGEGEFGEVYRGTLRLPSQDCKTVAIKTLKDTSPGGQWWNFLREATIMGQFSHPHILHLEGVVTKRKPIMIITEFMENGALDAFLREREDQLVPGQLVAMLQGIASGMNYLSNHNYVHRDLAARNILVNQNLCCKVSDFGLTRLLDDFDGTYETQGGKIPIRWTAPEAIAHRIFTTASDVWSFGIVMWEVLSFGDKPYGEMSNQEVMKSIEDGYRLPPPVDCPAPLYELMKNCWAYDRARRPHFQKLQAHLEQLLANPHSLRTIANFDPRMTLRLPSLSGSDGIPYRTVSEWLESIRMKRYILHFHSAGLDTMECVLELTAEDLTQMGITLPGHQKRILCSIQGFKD

EPHB3 = molecular target: T3, EPHB3 (Homo sapiens, UniProt P54753); test: Kinobeads two-dose competition binding: EPHB3; conditions: read-out: Lestaurtinib Drugmatrix value, Gene Name EPHB3
T3 construct: endogenous in cells
T3 sequence (P54753 34-998): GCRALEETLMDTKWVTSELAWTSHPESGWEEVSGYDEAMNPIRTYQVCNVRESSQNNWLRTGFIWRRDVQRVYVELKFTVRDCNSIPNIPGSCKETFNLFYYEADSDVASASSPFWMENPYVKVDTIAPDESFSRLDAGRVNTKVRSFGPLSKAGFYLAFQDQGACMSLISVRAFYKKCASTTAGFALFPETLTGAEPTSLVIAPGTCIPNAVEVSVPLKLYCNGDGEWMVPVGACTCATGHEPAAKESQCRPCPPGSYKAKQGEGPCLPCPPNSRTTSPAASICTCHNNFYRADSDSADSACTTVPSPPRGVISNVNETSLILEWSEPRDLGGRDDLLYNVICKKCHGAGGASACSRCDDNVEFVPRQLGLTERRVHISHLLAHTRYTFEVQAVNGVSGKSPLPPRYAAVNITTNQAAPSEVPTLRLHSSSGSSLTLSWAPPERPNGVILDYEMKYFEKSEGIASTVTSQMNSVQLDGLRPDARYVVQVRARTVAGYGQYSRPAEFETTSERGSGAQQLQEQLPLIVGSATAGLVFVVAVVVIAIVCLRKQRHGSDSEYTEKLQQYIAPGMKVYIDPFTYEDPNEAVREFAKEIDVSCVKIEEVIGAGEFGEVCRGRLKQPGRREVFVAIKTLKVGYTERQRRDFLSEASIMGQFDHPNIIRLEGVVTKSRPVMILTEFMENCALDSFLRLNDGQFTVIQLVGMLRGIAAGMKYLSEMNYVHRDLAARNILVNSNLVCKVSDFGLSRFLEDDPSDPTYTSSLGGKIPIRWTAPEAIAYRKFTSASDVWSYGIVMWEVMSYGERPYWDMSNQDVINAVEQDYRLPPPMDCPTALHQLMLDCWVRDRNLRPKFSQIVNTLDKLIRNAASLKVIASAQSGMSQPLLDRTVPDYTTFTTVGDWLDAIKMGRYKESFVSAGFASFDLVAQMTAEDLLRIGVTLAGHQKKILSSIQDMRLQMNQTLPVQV

ERN2 = molecular target: T4, ERN2 (Homo sapiens, UniProt Q76MJ5); test: Kinobeads two-dose competition binding: ERN2; conditions: read-out: Lestaurtinib Drugmatrix value, Gene Name ERN2
T4 construct: endogenous in cells

ULK3 = molecular target: T5, ULK3 (Homo sapiens, UniProt Q6PHR2); test: Kinobeads two-dose competition binding: ULK3
T5 construct: endogenous in cells

GSK3A = molecular target: T6, GSK3A (Homo sapiens, UniProt P49840); test: Kinobeads two-dose competition binding: GSK3A; conditions: read-out: Lestaurtinib Drugmatrix value, Gene Name GSK3A
T6 construct: endogenous in cells
T6 sequence (P49840 whole entry): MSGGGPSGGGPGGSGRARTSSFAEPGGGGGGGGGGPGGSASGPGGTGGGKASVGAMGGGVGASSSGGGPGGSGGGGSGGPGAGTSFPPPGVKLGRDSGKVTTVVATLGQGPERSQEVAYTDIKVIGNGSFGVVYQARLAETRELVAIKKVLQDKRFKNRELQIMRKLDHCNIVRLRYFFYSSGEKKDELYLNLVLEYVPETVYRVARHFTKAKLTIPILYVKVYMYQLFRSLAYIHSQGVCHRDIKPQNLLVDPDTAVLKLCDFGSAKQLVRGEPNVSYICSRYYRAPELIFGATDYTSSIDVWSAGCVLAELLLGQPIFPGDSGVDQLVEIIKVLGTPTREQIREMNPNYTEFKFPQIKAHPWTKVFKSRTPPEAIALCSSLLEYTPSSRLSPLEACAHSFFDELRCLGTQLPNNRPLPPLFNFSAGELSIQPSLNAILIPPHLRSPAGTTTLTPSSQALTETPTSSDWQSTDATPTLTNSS

T5 sequence (Q6PHR2 whole entry): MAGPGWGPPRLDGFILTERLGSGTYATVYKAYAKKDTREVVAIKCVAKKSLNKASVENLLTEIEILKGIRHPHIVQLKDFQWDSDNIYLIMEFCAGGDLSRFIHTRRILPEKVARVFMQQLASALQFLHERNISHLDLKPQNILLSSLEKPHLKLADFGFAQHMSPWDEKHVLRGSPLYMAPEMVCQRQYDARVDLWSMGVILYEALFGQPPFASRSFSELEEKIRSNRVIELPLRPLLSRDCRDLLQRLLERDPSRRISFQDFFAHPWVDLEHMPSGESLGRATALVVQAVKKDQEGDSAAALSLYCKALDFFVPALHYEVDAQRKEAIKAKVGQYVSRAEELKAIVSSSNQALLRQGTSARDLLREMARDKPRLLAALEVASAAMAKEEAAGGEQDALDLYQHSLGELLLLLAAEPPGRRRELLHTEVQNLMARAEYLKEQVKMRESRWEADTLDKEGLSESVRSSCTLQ
T4 sequence (Q76MJ5 35-926): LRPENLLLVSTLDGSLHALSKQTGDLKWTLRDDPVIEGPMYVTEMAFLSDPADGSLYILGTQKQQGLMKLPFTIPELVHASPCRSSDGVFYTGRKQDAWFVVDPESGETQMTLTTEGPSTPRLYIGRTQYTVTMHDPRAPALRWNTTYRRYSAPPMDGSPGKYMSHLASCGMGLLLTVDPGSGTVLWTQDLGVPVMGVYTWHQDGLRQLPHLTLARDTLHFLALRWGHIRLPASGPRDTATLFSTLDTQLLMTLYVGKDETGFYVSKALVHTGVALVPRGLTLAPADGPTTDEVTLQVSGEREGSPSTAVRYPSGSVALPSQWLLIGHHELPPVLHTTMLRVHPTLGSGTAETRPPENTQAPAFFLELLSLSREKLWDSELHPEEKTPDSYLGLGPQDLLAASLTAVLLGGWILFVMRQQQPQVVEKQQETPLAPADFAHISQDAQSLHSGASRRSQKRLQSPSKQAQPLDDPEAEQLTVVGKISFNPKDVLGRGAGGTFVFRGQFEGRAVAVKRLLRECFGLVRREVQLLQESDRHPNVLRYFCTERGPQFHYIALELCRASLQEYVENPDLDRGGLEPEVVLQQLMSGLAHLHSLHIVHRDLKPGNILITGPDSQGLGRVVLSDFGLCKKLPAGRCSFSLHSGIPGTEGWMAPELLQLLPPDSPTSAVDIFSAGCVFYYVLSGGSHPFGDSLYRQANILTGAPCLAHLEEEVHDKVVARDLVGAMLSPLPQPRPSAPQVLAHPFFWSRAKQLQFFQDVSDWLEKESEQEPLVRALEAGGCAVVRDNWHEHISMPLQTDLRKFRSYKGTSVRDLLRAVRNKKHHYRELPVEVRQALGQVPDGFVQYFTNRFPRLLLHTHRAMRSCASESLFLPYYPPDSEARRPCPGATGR

Question: For C[C@]12O[C@H](C[C@]1(O)CO)n1c3ccccc3c3c4c(c5c6ccccc6n2c5c31)CNC4=O [Lestaurtinib], which potency estimated from few doses (ACAD11) is on record?
Answer: The potency estimated from few doses was 890 nM.

Question: And the potency estimated from few doses (EPHA1)?
Answer: Its potency estimated from few doses is 297 nM.

Question: What about the potency estimated from few doses (EPHB3) of the same compound?
Answer: The potency estimated from few doses was 780 nM.

Question: What about the potency estimated from few doses (ERN2) of the same compound?
Answer: The potency estimated from few doses was 346 nM.

Question: And the potency estimated from few doses (ULK3; read-out: Lestaurtinib Drugmatrix value, Gene Name ULK3, repeated control pulldowns; each column = experiment id and replicate (Lestaurtinib_02339_R1 ... Lestaurtinib_03260_R3))?
Answer: The potency estimated from few doses was 113 nM.

Question: What about the potency estimated from few doses (ULK3; read-out: Lestaurtinib Drugmatrix value, Gene Name ULK3; repeated control pulldowns; each column = experiment id and replicate (Lestaurtinib_02339_R1 ... Lestaurtinib_03260_R3)) of the same compound?
Answer: Its potency estimated from few doses is 218 nM.

Question: What about the potency estimated from few doses (GSK3A) of the same compound?
Answer: Its potency estimated from few doses is 175 nM.
